The NIST ThermoML archive (doi:10.1016/j.jct.2013.11.038)
“And” between values parts separate entries of the source, which are not always exact repeats. Equal values may be shown once.

Experiments:
[1] = Molar enthalpy of transition or fusion; conditions: Crystal; DSC
[2] = molar heat capacity at constant pressure; conditions: 101.33 kPa, Crystal, Large sample (1 g) DSC
[3] = Crystal; for vapor or sublimation pressure: Calculated from knudsen effusion weight loss; for Normal melting temperature: DTA

O=C(O)c1ccccc1 [benzoic acid]
Conditions	Molar enthalpy of transition or fusion [kcal/mol]	Normal melting temperature [°C]
[1]	4.28	–
[3]	–	122.22

Conditions	molar heat capacity at constant pressure [J/K/mol]	vapor or sublimation pressure
[2], 308.15 K	152.1	–
[2], 318.15 K	157.3	–
[2], 328.15 K	161.6	–
[2], 338.15 K	166.9	–
[2], 348.15 K	170.8	–
[2], 358.15 K	175.6	–
[2], 368.15 K	180	–
[2], 378.15 K	186.9	–
[3], 269.3 K	–	2.1e-06 kPa and 2.2e-06 kPa
[3], 275.04 K	–	5.1e-06 kPa and 5e-06 kPa and 4.9e-06 kPa
[3], 281.33 K	–	1.24e-05 kPa [middle of 4 runs]
[3], 287.28 K	–	2.71e-05 kPa [middle of 7 runs]
[3], 293.19 K	–	5.78e-05 kPa [middle of 6 runs]
[3], 299.18 K	–	0.0001196 kPa [middle of 7 runs]
[3], 305.18 K	–	0.0002454 kPa [middle of 7 runs]
[3], 311.17 K	–	0.0004925 kPa [middle of 7 runs]
[3], 317.13 K	–	0.0009533 kPa [middle of 6 runs]

O=C(Oc1ccccc1)Oc1ccccc1 [diphenyl carbonate]
[3]
Conditions	vapor or sublimation pressure
302.18 K	2.22e-05 kPa [middle of 5 runs]
308.17 K	5.05e-05 kPa [middle of 5 runs]
314.32 K	0.0001144 kPa [middle of 7 runs]
320.25 K	0.0002424 kPa [middle of 7 runs]
326.23 K	0.0005075 kPa [middle of 7 runs]
332.24 K	0.001043 kPa [middle of 6 runs]

O=C1c2ccccc2-c2cccc3cccc1c23 [7H-benz[de]anthracen-7-one]
Conditions	Molar enthalpy of transition or fusion [kcal/mol]	Normal melting temperature [°C]
[1]	6.3	–
[3]	–	173.63

Conditions	molar heat capacity at constant pressure [J/K/mol]	vapor or sublimation pressure
[2], 300.47 K	257.2	–
[2], 305.43 K	262.2	–
[2], 310.4 K	265.7	–
[2], 315.36 K	270.5	–
[2], 320.32 K	275	–
[3], 360.04 K	–	5.7e-06 kPa [middle of 4 runs]
[3], 369.32 K	–	1.67e-05 kPa [middle of 4 runs]
[3], 380.12 K	–	5.13e-05 kPa [middle of 6 runs]
[3], 390.32 K	–	0.0001425 kPa [middle of 6 runs]
[3], 400.17 K	–	0.0003806 kPa [middle of 7 runs]
[3], 410.37 K	–	0.0009607 kPa [middle of 6 runs]

CCCCCCCCCCCCCCCCCC [octadecane]
Conditions	Molar enthalpy of transition or fusion [kcal/mol]	Normal melting temperature [°C]
[1]	14.7	–
[3]	–	28.31

Conditions	molar heat capacity at constant pressure, 283.85 K [J/K/mol]	molar heat capacity at constant pressure, 285.5 K [J/K/mol]	molar heat capacity at constant pressure, 287.15 K [J/K/mol]	molar heat capacity at constant pressure, 288.81 K [J/K/mol]	molar heat capacity at constant pressure, 290.46 K [J/K/mol]	vapor or sublimation pressure, 286.34 K	vapor or sublimation pressure, 289.28 K	vapor or sublimation pressure, 292.27 K	vapor or sublimation pressure, 295.17 K	vapor or sublimation pressure, 297.99 K
[2]	448.6	455.2	460.7	467.3	472.4	–	–	–	–	–
[3]	–	–	–	–	–	2e-06 kPa [middle of 4 runs]	3.1e-06 kPa [middle of 4 runs]	5.9e-06 kPa [middle of 4 runs]	1.02e-05 kPa and 1.07e-05 kPa and 1.01e-05 kPa	1.9e-05 kPa [middle of 5 runs]
